Drawing on patent publication US5922871A, “Terephthalamide derivatives” (Dongwha Pharmaceutical Ind. Co., Ltd., priority 1997, dated 1999), this text covers inhibition for 21 compounds.

The target in test [1] is T1, HBV polymerase reverse transcriptase (HBV-RT) (Hepatitis B virus genotype D subtype ayw, UniProt P03156).
T1 construct: made in house; host or cells: E. coli
The experiment in a line: inhibitory activity against HBV polymerase in vitro (reverse transcriptase activity). The class given is biochemical. The note with it: read-out: Inhibitory effect of HBV-RT; for inhibition at 0.1 µg/mL: 0.1 μg/ml; for inhibition at 1 µg/mL: 1 μg/ml. From the text: Experiment 1: The inhibitory activity against HBV polymerase in vitro.
Recently, the inventors of the present invention have produced a recombinant HBV polymerase that is expressed from E.coli transformant, measured its enzyme activity and filed patent applications thereof [Korean Patent Application Nos. 94-3918, 96-33998 and 96-63255].
The inventions have established a method of measuring the reverse transcriptase activity of HBV polymerase in vitro. The fundamental principle is the same as the ELISA method, and after reacting the substrate with biotin- and DIG-modified nucleotide, a method of recognizing the polymerized substrate as anti-DIG antibody with peroxidase was used. […] and 20 μ of test compound were mixed and reacted at 14~30° C. for 18~24 hours. Then, the inhibitory effect of test compound against reverse trascriptase activity in the HBV polymerase was examined, compared with the results of control tests without the test compound.

For test [2], the target named is T2, HIV reverse transcriptase (HIV-RT) (Human immunodeficiency virus type 1 group M subtype B, UniProt P04585).
T2 construct: purchased Boehringer Mannheim
Briefly: in vitro inhibition test against HIV reverse transcriptase. The class given is biochemical, HIV (AIDS virus). The note with it: read-out: Inhibitory effect of HIV-RT; for inhibition at 0.1 µg/mL: 0.1 μg/ml; for inhibition at 1 µg/mL: 1 μg/ml. As to the method:
Experiment 3: The in vitro inhibition test against HIV reverse transcriptase
The inhibitory activity in vitro was measured using a non-radioactive reverse transcriptase assay Kit (Boehringer Mannheim).
At first, 20 μl(40 ng) HIV-RT was added to the wells coated with streptavidin and with the addition of 20 μl, reaction mixture containing template/primer hybrid poly(A)/oligo(dT)15 and DIG-(digoxigenin)-dUTP, biotin-dUTP and TTP, 20 μl test compound was added and reacted at 37° C. for 1 hour. The control without test compound was used for the comparison of related activity. Since DNA containing nucleotide labeled with digoxigenin and biotine was prepared by the action of HIV-RT, it was combined with streptavidin coated at the bottom of the wells. After the reaction was completed, remaining impurities were removed by washing each well with 20 μl buffer solution (pH 7.0) for 30 seconds 5 times and with the addition of 200 μl anti-DIG-POD antibody, the mixture was reacted at 37° C. for 1 hour. For the removal of remaining impurities again, the reacting solution was washed with a buffer solution and with the addition of 200μl ABTS™ each, a substrate of POD(peroxidase), the solution was reacted at room temperature for 30 minutes. The absorbance was read by ELISA reader at 405 nm for the assay of reverse transcriptase activity and its inhibition activity.

T1 sequence (P03156 whole entry): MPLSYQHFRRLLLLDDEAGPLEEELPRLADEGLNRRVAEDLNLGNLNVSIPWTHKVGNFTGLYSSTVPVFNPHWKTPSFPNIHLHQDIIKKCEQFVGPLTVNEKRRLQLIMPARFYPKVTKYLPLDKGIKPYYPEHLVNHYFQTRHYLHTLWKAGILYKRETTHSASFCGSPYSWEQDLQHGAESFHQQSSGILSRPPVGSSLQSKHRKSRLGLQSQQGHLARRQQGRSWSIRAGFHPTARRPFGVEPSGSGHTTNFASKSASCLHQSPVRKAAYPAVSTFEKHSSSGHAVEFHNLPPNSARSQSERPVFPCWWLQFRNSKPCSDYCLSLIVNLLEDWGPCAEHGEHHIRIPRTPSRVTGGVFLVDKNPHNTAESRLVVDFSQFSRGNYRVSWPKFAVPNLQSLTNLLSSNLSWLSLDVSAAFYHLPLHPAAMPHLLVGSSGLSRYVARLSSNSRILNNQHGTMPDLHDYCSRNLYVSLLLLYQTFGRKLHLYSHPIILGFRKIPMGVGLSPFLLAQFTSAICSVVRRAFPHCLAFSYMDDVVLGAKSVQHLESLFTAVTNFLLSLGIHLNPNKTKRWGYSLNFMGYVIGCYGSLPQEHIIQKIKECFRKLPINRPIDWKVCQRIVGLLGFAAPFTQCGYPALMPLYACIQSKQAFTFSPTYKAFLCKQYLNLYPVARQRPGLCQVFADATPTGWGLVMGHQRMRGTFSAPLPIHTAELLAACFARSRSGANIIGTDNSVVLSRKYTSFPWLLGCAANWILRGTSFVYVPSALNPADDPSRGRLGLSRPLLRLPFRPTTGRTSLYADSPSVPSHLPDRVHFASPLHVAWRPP

As for `CC(C)Nc1cccnc1N1CCN(C(=O)c2ccc(C(=O)NCCCO)cc2)CC1` [Compound No. 2, 1-[N-(3-Hydroxypropyl)carbamoyl]-4-[1-[3-(isopropylamino)-2-pyridyl]piperazin-4-yl-carbonyl]benzene], the inhibition at 0.1 µg/mL in test [1] amounted to 34%; in test [2], 35%. Further, the inhibition at 1 µg/mL in test [1] came out at 42%; in test [2] it was 40%.

As for `CC(C)Nc1cccnc1N1CCN(C(=O)c2ccc(C(=O)N(C)CCO)cc2)CC1` [Compound No. 5, 1-[N-(2-Hydroxyethyl)-N-methylcarbamoyl]-4-[1-[3-(isopropylamino)-2-pyridyl]piperazin-4-yl-carbonyl]benzene], in test [1], the inhibition at 0.1 µg/mL came out at 40% and the inhibition at 1 µg/mL is 48%. Besides, in test [2], the inhibition at 0.1 µg/mL stood at 43% and the inhibition at 1 µg/mL came to 71%.

On to `CCCN(CCO)C(=O)c1ccc(C(=O)N2CCN(c3ncccc3NC(C)C)CC2)cc1` [Compound No. 7, 1-[N-(2-Hydroxyethyl)-N-propylcarbamoyl]-4-[1-[3-(isopropylamino)-2-pyridyl]piperazin-4-yl-carbonyl]benzene], for which, in test [2], the inhibition at 0.1 µg/mL turned out to be 21% and the inhibition at 1 µg/mL stood at 60%.

`CC(C)Nc1cccnc1N1CCN(C(=O)c2ccc(C(=O)N(CCO)c3ccccc3)cc2)CC1` [Compound No. 11, 1-[N-(2-Hydroxyethyl)-N-phenylcarbamoyl]-4-[1-[3-(isopropylamino)-2-pyridyl]piperazin-4-yl-carbonyl]benzene]: in test [1], the inhibition at 0.1 µg/mL amounted to 20% and the inhibition at 1 µg/mL was determined as 76%. Also, in test [2], the inhibition at 0.1 µg/mL came out at 43% and the inhibition at 1 µg/mL turned out to be 50%.

With `CCN(CC)C(=O)c1ccc(C(=O)N2CCN(c3ncccc3NC(C)C)CC2)cc1` [Compound No. 13, 1-[N,N-Diethylcarbamoyl]-4-[1-[3-(isopropylamino)-2-pyridyl]piperazin-4-yl-carbonyl]benzene], in test [1], the inhibition at 0.1 µg/mL stood at 55% and the inhibition at 1 µg/mL is 70%.

For `CC(C)Nc1cccnc1N1CCN(C(=O)c2ccc(C(=O)N(C(C)C)C(C)C)cc2)CC1` [Compound No. 14, 1-[N,N-Bis(1-methylethyl)carbamoyl]-4-[1-[3-(isopropylamino)-2-pyridyl]piperazin-4-yl-carbonyl]benzene], in test [2], the inhibition at 0.1 µg/mL turned out to be 52% and the inhibition at 1 µg/mL came out at 59%.

With `CC(O)CN(CC(C)O)C(=O)c1ccc(C(=O)N2CCN(c3ncccc3NC(C)C)CC2)cc1` (centres unmarked) [Compound No. 16, 1-[N,N-Bis(2-hydroxypropyl)carbamoyl]-4-[1-[3-(isopropylamino)-2-pyridyl]piperazin-4-yl-carbonyl]benzene], the results for the inhibition at 0.1 µg/mL in test [1] and in test [2] were 45% and 52%, respectively. Besides, the inhibition at 1 µg/mL worked out at 78% in test [1] and 65% in test [2].

Turning to `CC(C)Nc1cccnc1N1CCN(C(=O)c2ccc(C(=O)NCCOCCO)cc2)CC1` [Compound No. 17, 1-[N-[2-(2-Hydroxyethoxy)ethyl]carbamoyl]-4-[1-[3-(isopropylamino)-2-pyridyl]piperazin-4-yl-carbonyl]benzene], in test [2], the inhibition at 0.1 µg/mL stood at 35% and the inhibition at 1 µg/mL came to 53%.

For `CCNc1cccnc1N1CCN(C(=O)c2ccc(C(=O)N(CC)CCO)cc2)CC1` [Compound No. 18, 1-[N-Ethyl-N-(2-hydroxyethyl)carbamoyl]-4-[1-[3-(ethylamino)-2-pyridyl]piperazin-4-yl-carbonyl]benzene], in test [1], the inhibition at 0.1 µg/mL worked out at 28% and the inhibition at 1 µg/mL was 63%.

Regarding `CC(C)Nc1cccnc1N1CCN(C(=O)c2ccc(C(=O)N3CCN(C)CC3)cc2)CC1` [Compound No. 20, 1-[4-[1-[3-(Isopropylamino)-2-pyridyl]piperazin-4-yl-carbonyl]benzoyl]-4-methylpiperazine], in test [1], the inhibition at 0.1 µg/mL amounted to 43% and the inhibition at 1 µg/mL amounted to 58%.

Take `CCN1CCN(C(=O)c2ccc(C(=O)N3CCN(c4ncccc4NC(C)C)CC3)cc2)CC1` [Compound No. 21, 4-Ethyl-1-[4-[1-[3-(isopropylamino)-2-pyridyl]piperazin-4-yl-arbonyl]benzoyl]piperazine]: in test [2], the inhibition at 0.1 µg/mL was 20% and the inhibition at 1 µg/mL stood at 64%.

Regarding `CC(C)Nc1cccnc1N1CCN(C(=O)c2ccc(C(=O)N3CCN(CCOCCO)CC3)cc2)CC1` [Compound No. 32, 4-[2-(2-Hydroxyethoxy)ethyl]-1-[4-[1-[3-(isopropylamino)-2-pyridyl]piperazin-4-yl-carbonyl]benzoyl]piperazine], the inhibition at 0.1 µg/mL in test [1] turned out to be 40%; in test [2], 27%. Further, the values for the inhibition at 1 µg/mL in test [1] and in test [2] were 71% and 58%, respectively.

In the case of `CCNc1cccnc1N1CCN(C(=O)c2ccc(C(=O)N3CCN(CCO)CC3)cc2)CC1` [Compound No. 33, 1-[4-[1-[3-(Ethylamino)-2-pyridyl]piperazin-4-yl-carbonyl]benzoyl]-4-(2-hydroxyethyl)piperazine], in test [1], the inhibition at 0.1 µg/mL is 37% and the inhibition at 1 µg/mL worked out at 69%.

Consider `CC(C)Nc1cccnc1N1CCN(C(=O)c2ccc(C(=O)NC(C)(C)CO)cc2)CC1` [Compound No. 34, 1-[N-(1,1-Dimethyl-2-hydroxyethyl)carbamoyl]-4-[1-[3-(isopropylamino)-2-pyridyl]piperazin-4-yl-carbonyl]benzene], for which, in test [1], the inhibition at 0.1 µg/mL stood at 41% and the inhibition at 1 µg/mL worked out at 53%. For the same compound, in test [2], the inhibition at 0.1 µg/mL is 43% and the inhibition at 1 µg/mL amounted to 51%.

Regarding `CC(C)Nc1cccnc1N1CCN(C(=O)c2ccc(C(=O)N[C@@H](C)CO)cc2)CC1` [Compound No. 35, 1-[N-[(1S)-2-Hydroxy-1-methylethyl]carbamoyl]-4-[1-[3-(isopropylamino)-2-pyridyl]piperazin-4-yl-carbonyl]benzene], in test [1], the inhibition at 0.1 µg/mL amounted to 62% and the inhibition at 1 µg/mL was 82%.

On to `CC(C)Nc1cccnc1N1CCN(C(=O)c2ccc(C(=O)N[C@H](CO)C(C)C)cc2)CC1` [Compound No. 38, 1-[N-[(1S)-2-Hydroxy-1-(1-methylethyl)ethyl]carbamoyl]-4-[1-[3-(isopropylamino)-2-pyridyl]piperazin-4-yl-carbonyl]benzene], for which, in test [1], the inhibition at 0.1 µg/mL stood at 50% and the inhibition at 1 µg/mL turned out to be 67%. Also, in test [2], the inhibition at 0.1 µg/mL stood at 20% and the inhibition at 1 µg/mL was 78%.

For the compound `CC(C)Nc1cccnc1N1CCN(C(=O)c2ccc(C(=O)N[C@H](CO)CC3CCCCC3)cc2)CC1` [Compound No. 47, 1-[N-[(1S)-1-(Cyclohexylmethyl)-2-hydroxyethyl]carbamoyl]-4-[1-[3-(isopropylamino)-2-pyridyl]piperazin-4-yl-carbonyl]benzene], in test [2], the inhibition at 0.1 µg/mL worked out at 43% and the inhibition at 1 µg/mL came to 54%.

Turning to `CC(C)Nc1cccnc1N1CCN(C(=O)c2ccc(C(=O)NC[C@H](C)O)cc2)CC1` [Compound No. 56, 1-[N-[(2S)-2-Hydroxypropyl]carbamoyl]-4-[1-[3-(isopropylamino)-2-pyridyl]piperazin-4-yl-carbonyl]benzene], in test [1], the inhibition at 0.1 µg/mL was found to be 58% and the inhibition at 1 µg/mL was found to be 76%.

`CC(C)Nc1cccnc1N1CCN(C(=O)c2ccc(C(=O)NCC3CCCO3)cc2)CC1` (centres unmarked) [Compound No. 72, 4-[1-[3-(Isopropylamino)-2-pyridyl]piperazin-4-yl-carbonyl]-1-[N-[(tetrahydrofuran-2-yl)methyl]carbamoyl]benzene]: in test [1], the inhibition at 0.1 µg/mL stood at 51% and the inhibition at 1 µg/mL came out at 63%.

Consider `CC(C)Nc1cccnc1N1CCN(C(=O)c2ccc(C(=O)N3CCSCC3)cc2)CC1` [Compound No. 77, 4-[1-[3-(Isopropylamino)-2-pyridyl]piperazin-4-yl-carbonyl]-1-(thiomorpholin-4-yl-carbonyl)benzene], for which, in test [2], the inhibition at 0.1 µg/mL stood at 28% and the inhibition at 1 µg/mL stood at 40%.

Regarding `CC(C)Nc1cccnc1N1CCN(C(=O)c2ccc(C(=O)NCCN3CCCCC3)cc2)CC1` [Compound No. 81, 4-[1-[3-(Isopropylamino)-2-pyridyl]piperazin-4-yl-carbonyl]-1-[N-[2-(piperidin-1-yl)ethyl]carbamoyl]benzene], in test [2], the inhibition at 0.1 µg/mL was 32% and the inhibition at 1 µg/mL was determined as 60%.
